How the values were obtained:
[1] = target: Acetylcholinesterase (Electrophorus electricus) (UniProt O42275); assay: Inhibition of Electrophorus electricus AChE at 10 uM using acetylthiocholine iodide as substrate incubated for 15 mins by Ellman's method relative to control
MAO-A = target: T1, MAO-A (Homo sapiens, UniProt P21397); assay: Inhibition of recombinant human MAOA at 10 uM using kynuramine as substrate preincubated for 30 mins followed by substrate addition and measured after 30 mins by fluorescence assay relative to control; settings: probe kynuramine, time 60 min
T1 sequence (P21397 whole entry): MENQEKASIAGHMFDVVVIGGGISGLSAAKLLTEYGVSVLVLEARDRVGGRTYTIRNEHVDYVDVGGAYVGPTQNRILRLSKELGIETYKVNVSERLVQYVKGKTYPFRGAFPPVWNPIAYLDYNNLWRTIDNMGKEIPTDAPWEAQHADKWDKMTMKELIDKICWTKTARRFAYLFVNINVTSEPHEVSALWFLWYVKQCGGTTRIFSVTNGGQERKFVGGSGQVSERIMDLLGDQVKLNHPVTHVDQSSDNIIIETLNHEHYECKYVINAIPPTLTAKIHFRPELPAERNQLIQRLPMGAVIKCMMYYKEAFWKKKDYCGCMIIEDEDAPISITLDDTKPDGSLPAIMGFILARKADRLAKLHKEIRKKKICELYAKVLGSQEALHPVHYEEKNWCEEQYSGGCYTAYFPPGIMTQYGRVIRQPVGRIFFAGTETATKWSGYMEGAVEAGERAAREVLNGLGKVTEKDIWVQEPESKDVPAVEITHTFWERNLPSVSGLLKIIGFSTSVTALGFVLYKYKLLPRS

[2] = Antioxidant activity assessed as trolox equivalent of AAPH radical scavenging activity measured every min for 90 mins by ORAC-FL assay; format: functional
[3] = target: T2, Amine oxidase [flavin-containing] B (Homo sapiens, UniProt P27338); assay: Inhibition of recombinant human MAOB at 10 uM using kynuramine as substrate preincubated for 30 mins followed by substrate addition and measured after 30 mins by fluorescence assay relative to control; settings: 0.5 h
T2 sequence (P27338 whole entry): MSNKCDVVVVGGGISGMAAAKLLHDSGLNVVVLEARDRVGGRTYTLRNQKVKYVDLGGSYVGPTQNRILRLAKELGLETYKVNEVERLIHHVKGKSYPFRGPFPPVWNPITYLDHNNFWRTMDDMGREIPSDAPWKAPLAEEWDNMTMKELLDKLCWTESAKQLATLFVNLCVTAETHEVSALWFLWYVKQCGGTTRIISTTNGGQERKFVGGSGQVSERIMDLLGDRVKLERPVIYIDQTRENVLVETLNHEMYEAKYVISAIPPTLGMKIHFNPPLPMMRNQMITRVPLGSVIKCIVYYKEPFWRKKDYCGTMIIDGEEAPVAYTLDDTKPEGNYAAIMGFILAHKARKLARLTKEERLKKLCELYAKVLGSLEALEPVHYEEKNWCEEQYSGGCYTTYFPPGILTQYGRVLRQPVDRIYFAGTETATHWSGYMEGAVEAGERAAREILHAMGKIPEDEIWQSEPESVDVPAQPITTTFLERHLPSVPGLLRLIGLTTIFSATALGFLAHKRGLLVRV

[4] = target: butyrylcholinesterase (BuChE) (Rattus norvegicus, UniProt Q9JKC1); assay: Inhibition of rat serum BuChE at 10 uM using butyrylthiocholine iodide as substrate incubated for 15 mins by Ellman's method relative to control; format: cell-free; settings: probe butyrylthiocholine iodide
Sequence of butyrylcholinesterase (BuChE) (Q9JKC1 whole entry): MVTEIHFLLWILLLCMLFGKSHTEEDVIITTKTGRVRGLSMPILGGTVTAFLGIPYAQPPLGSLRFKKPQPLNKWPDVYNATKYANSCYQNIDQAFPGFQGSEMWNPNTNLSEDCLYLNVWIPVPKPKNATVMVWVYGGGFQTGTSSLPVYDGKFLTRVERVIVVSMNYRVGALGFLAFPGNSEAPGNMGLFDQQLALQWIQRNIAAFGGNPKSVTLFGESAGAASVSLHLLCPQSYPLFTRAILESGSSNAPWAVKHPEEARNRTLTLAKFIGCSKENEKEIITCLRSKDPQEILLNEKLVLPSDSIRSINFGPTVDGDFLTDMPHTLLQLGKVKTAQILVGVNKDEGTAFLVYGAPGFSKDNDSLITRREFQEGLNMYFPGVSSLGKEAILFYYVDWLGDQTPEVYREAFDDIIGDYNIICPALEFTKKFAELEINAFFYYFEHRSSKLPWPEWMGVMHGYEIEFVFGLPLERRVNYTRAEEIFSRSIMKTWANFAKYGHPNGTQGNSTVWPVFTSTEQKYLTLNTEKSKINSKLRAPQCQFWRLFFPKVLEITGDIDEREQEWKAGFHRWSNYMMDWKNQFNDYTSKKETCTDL

Acetylcholinesterase = Acetylcholinesterase (Electrophorus electricus, UniProt O42275); assay: Inhibition of Electrophorus electricus AChE using acetylthiocholine iodide as substrate incubated for 15 mins by Ellman's method
Sequence of Acetylcholinesterase (O42275 whole entry): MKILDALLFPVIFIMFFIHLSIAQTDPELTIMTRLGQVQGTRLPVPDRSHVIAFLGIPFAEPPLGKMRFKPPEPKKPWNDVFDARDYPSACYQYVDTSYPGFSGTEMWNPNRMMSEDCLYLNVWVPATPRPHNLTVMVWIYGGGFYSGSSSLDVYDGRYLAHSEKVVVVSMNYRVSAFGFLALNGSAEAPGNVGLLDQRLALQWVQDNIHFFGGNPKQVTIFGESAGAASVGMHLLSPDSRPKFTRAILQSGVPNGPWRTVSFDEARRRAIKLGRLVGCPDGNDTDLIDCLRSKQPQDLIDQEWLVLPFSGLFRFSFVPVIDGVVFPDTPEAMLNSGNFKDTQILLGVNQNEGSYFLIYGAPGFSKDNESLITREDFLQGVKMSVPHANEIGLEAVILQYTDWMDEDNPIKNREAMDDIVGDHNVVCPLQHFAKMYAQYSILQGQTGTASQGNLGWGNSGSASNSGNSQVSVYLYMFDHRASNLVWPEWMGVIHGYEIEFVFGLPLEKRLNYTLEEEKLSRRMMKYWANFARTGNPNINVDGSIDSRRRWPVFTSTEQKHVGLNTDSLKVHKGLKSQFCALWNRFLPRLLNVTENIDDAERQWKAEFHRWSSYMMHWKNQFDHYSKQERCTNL

[5] = target: Amyloid-beta precursor protein (Homo sapiens) (UniProt P05067); assay: Inhibition of amyloid beta (1 to 42) (unknown origin) self aggregation at 25 uM after 24 hrs by thioflavin-T fluorescence method relative to control
Sequence of Amyloid-beta precursor protein (Homo sapiens) (P05067 whole entry): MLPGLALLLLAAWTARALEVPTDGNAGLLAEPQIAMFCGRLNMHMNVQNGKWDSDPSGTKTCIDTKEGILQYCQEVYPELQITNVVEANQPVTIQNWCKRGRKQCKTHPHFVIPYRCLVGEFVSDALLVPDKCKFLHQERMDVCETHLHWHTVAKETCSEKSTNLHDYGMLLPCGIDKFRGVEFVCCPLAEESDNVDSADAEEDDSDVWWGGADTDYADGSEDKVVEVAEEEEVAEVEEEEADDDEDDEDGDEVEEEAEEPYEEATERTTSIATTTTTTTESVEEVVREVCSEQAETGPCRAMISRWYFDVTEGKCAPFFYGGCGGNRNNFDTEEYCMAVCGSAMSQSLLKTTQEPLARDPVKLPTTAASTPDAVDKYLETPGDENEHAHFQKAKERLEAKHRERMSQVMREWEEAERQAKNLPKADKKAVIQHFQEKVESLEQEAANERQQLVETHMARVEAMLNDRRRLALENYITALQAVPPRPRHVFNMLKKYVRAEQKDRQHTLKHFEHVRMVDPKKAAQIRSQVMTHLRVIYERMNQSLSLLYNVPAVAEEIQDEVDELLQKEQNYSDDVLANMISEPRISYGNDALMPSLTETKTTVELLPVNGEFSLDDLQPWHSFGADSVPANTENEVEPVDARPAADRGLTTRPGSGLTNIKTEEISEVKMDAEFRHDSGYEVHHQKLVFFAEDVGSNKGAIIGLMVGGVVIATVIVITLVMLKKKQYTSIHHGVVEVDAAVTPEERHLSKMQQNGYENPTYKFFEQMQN

Sequence of Acetylcholinesterase (Electrophorus electricus) (O42275 24-633 limits assumed): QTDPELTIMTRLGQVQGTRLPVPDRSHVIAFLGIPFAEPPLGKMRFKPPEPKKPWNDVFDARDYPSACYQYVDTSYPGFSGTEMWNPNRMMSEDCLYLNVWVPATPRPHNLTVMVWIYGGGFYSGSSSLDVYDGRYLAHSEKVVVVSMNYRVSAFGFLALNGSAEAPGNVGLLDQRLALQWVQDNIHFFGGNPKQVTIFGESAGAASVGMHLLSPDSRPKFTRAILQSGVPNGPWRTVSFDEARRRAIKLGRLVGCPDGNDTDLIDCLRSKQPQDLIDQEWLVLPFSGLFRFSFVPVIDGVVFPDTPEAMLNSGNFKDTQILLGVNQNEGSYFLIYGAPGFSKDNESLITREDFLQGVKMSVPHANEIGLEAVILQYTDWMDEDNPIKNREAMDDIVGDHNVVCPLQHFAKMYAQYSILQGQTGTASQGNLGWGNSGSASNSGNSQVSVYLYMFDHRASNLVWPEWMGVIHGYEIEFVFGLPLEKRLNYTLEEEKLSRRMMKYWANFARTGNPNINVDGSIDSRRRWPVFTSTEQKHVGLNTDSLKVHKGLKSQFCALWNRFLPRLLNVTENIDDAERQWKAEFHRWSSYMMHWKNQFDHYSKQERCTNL

Structure (SMILES) | inhibition [1] [%] | inhibition at 0.5 h, 10 µM (MAO-A) [%] | Activity [2] [equiv] | inhibition at 10 µM [3] [%] | inhibition at […], 10 µM [4] [%] | IC50 (Acetylcholinesterase) [µM] | inhibition [5] [%]
COc1cc2c(cc1OC)/C(=C\c1cccc(O)c1N1CCCCC1)OC2=O | 42.8 | < 5 | 2.58 | 24.2 | 16.4 | – | –
COc1cc2c(cc1OC)/C(=C\c1cccc(O)c1N1CCN(C)CC1)OC2=O | – | 10 | 1.38 | 13.2 | 5.9 | 12.4 | –
CCN(CC)c1c(O)cccc1/C=C1\OC(=O)c2cc(OC)c(OC)cc21 | 38 | < 5 | 2.87 | 44.9 | < 5 | – | –
COc1cc2c(cc1OC)/C(=C\c1ccc(N3CCN(C)CC3)c(O)c1)OC2=O | – | 5 | 2.36 | 31.4 | 5.5 | 2.63 | –
COc1cc2c(cc1OC)/C(=C/c1cccc(O)c1N1CCCCC1)OC2=O | 41.1 | < 5 | 2.08 | 20.3 | 6.7 | – | –
COc1cc2c(cc1OC)C(Cc1cccc(O)c1N1CCOCC1)OC2=O (configuration not stated) | 11 | < 5 | 2.28 | 19.1 | < 5 | – | –
COc1cc2c(cc1OC)/C(=C\c1cccc(O)c1N1CCOCC1)OC2=O | 40.8 | < 5 | 2.06 | 10.1 | 11.3 | – | –
COc1cc2c(cc1OC)C(Cc1ccc(N3CCN(C)CC3)c(O)c1)OC2=O (configuration not stated) | 42.4 | 5.6 | 2.09 | 17 | < 5 | – | –
COc1cc2c(cc1OC)C(Cc1cccc(O)c1N1CCCC1)OC2=O (configuration not stated) | 19.4 | 10.5 | 1.86 | 11.3 | 7.1 | – | –
COc1cc2c(cc1OC)/C(=C/c1cccc(O)c1N1CCN(C)CC1)OC2=O | 22.3 | < 5 | 2.09 | 29.5 | < 5 | – | –
COc1cc2c(cc1OC)C(Cc1cccc(O)c1)OC2=O (configuration not stated) | 14.4 | 7.9 | 0.95 | 6.2 | < 5 | – | –
COc1cc2c(cc1OC)/C(=C/c1cccc(O)c1N1CCCC1)OC2=O | – | < 5 | 2.18 | 10.3 | 8.8 | 8.86 | –
COc1cc2c(cc1OC)/C(=C/c1ccc(N3CCOCC3)c(O)c1)OC2=O | – | 5.3 | 1.77 | 50.2 | < 5 | 9.68 | 26.7
CCN(CC)c1c(O)cccc1/C=C1/OC(=O)c2cc(OC)c(OC)cc21 | 46.9 | < 5 | 2.53 | 44.6 | 31.4 | – | –
CCN(CC)c1c(O)cccc1CC1OC(=O)c2cc(OC)c(OC)cc21 (configuration not stated) | 16.3 | < 5 | 2.78 | < 5 | 12.5 | – | –
COc1cc2c(cc1OC)C(Cc1cccc(O)c1N1CCN(C)CC1)OC2=O (configuration not stated) | 14 | < 5 | 2.13 | < 5 | < 5 | – | –
COc1cc2c(cc1OC)/C(=C\c1ccc(N3CCOCC3)c(O)c1)OC2=O | – | 18.7 | 1.76 | 13 | 5.7 | 2.43 | 24.9
COc1cc2c(cc1OC)/C(=C\c1cccc(O)c1N1CCCC1)OC2=O | – | < 5 | 2.46 | 12.5 | 49.6 | 19.5 | –
